“Also recorded” adds a separate entry of the source.
Columns and labels:
[1] = test system: vincristine model of chemotherapy-induced pain; assay: Vincristine model of chemotherapy-induced pain: mechanical threshold with von Frey monofilaments; format: in vivo, rats; conditions: for development of mechanical allodynia (mechanical threshold, von Frey): vincristine 30 ug/kg/day for 12 days; for reversal of mechanical allodynia (von Frey), positive control: rats receiving vincristine, morphine 6 mg/kg i.p. acutely on each day of testing
Procedure: Rats were administered a PARP Inhibitor, 2-[(2R)-2-methylpyrrolidin-2-yl]-1H-benzimidazole-4-carboxamide (Compound A) or 6-fluoro-2-(2-methylpyrrolidin-2-yl)-1H-benzimidazole-4-carboxamide (Compound B), at doses of 25 mg/kg/day or 50 mg/kg/day (i.p.), for two days prior to the initiation of vincristine. After two days or pre-dosing with the PARP inhibitor, two minipumps were implanted in rats. Vincristine was administered via a subcutaneous mini-osmotic pump that delivered 30 ug/kg/day (i.v) for twelve days. PARP Inhibitor, Compound A or Compound B, or vehicle was administered via a subcutaneous mini-osmotic pump that delivered 25 mg/kg/day, 50 mg/kg/day, or vehicle (i.p.) for twelve days. A positive control group of rats receiving vincristine were dosed acutely with morphine (6 mg/kg, i.p.) on each day of testing. A negative control group of rats received saline. Mechanical threshold was determined for all rats using von Frey monofilaments at 5, 9 and 12 days following initiation of vincristine administration (days 7, 11 and 14 of compound delivery, respectively) for Compound A, and at 3, 6 and 10 days following initiation of vincristine administration (days 5, 8 and 12 of compound delivery, respectively) for Compound B. Mechanical allodynia was observed on all testing days in rats treated with vincristine compared to the naïve group.
Rats were administered a PARP Inhibitor, 2-[(2R)-2-methylpyrrolidin-2-yl]-1H-benzimidazole-4-carboxamide (Compound A), at doses of 25 mg/kg/day or 50 mg/kg/day (i.p., bid) for two days prior to the initiation of vincristine. After two days or pre-dosing with ABT-888, two minipumps were implanted in rats. Vincristine was administered via a subcutaneous mini-osmotic pump that delivered 30 ug/kg/day (i.v) for twelve days. Compound A or vehicle was administered via a subcutaneous mini-osmotic pump that delivered 25 mg/kg/day or 50 mg/kg/day (i.p.) for twelve days. A positive control group of rats receiving vincristine were dosed with acutely morphine (6 mg/kg, i.p.) on each day of testing. A negative control group of rats received saline. Mechanical threshold was determined for all rats using von Frey monofilaments on 5, 9 and 12 days following initiation of vincristine administration (days 7, 11 and 14 of compound delivery, respectively). Mechanical allodynia was observed on all testing days in rats treated with vincristine compared to the naïve group.
Vincristine (i.v, […]) was administered by mini-pump for twelve days. Rats were divided into four groups: Group 1: Vehicle; Group 2: 1-(2-fluoro-5-((4-oxo-3,4,5,6,7,8-hexahydrophthalazin-1-yl)methyl)phenyl)pyrrolidine-2,5-dione (Compound D), 25 mg/kg/day; Group 3: Compound D, 50 mg/kg/day; Group 4: Vehicle+Positive control (morphine). Groups 2 and 3 were pretreated with their respective dose of Compound D (either 25 mg/kg or 50 mg/kg, ip) for two days prior to co-dosing with vincristine. Rats in the positive control group were dosed with vehicle by mini-pump and were acutely administered morphine on day of testing. Mechanical threshold was determined using von Frey monofilaments on days 5, 9, and 12 post-mini-pump implantation. Plasma and brain were collected on day 12. […] Anti-nociceptive efficacy was dose-dependent and observed on days 5, 9, and 12 (FIG. 10).

PAR (pADPr) = assay: PAR levels in glabrous hindpaw skin biopsies, ELISA measuring pADPr; format: in vivo, rats; conditions: Example 4; skin biopsies on day 12 of Example 3; Compound A 25 mg/kg and 50 mg/kg; FIG. 8
Procedure: Following behavioral testing on day 12 in Example 3, skin biopsies were taken from glabrous hindpaw skin from rats in the naïve, vincristine, and vincristine+Compound A groups (n=5 per group). PAR levels were assessed using ab ELISA assay to measure pADPr as previously described (Liu et al., 2008). PAR levels in skin were increased by vincristine, as compared to the saline group.

[2] = test system: digital nerve SNAP amplitude, cisplatin-treated mice; assay: Nerve conduction study: sensory nerve action potential (SNAP) recording from the digital nerve after cisplatin; format: in vivo; conditions: Example 5, cisplatin 2.3 mg/kg/day i.p., Compound C 25 or 50 mg/kg/day (i.p., bid), week 3, FIG. 9
Procedure: Mice were administered a PARP Inhibitor, 2-[(2S)-2-methylpyrrolidin-2-yl]-1H-benzimidazole-4-carboxamide (Compound C), at doses of 25 mg/kg/day or 50 mg/kg/day (i.p., bid), for two days prior to the initiation of cisplatin. After two days or pre-dosing with Compound C, mice were co-dosed with the PARP inhibitor (25 mg/kg/day or 50 mg/kg/day) and cisplatin (2.3 mg/kg/day, i.p.). The dosing regimen consisted for 5 daily co-injections, followed by 5 days off, and then a repeat of 5 daily co-injection. Nerve conduction studies were performed after the final injections in week 3. Sensory nerve action potential (SNAP) recordings were made from the digital nerve. Cisplatin induced a decrease in amplitude in SNAP recording from the digital nerve, an effect that was prevented by 2-[(2S)-2-methylpyrrolidin-2-yl]-1H-benzimidazole-4-carboxamide (Compound C) treatment (FIG. 9).

oxaliplatin model = assay: Oxaliplatin model: behavioral assays (von Frey mechanical threshold, paw lifts from cold plate); format: in vivo; conditions: mice, oxaliplatin cumulative 30 mg/kg, Compound C 50 mg/kg i.p.
Procedure: (§1) Mice were administered a PARP Inhibitor, 2-[(2S)-2-methylpyrrolidin-2-yl]-1H-benzimidazole-4-carboxamide (Compound C) at doses of 25 mg/kg/day or 50 mg/kg/day (i.p.) for two days prior to the initiation of cisplatin. The 50 mg/kg dose of Compound C was administered (i.p.) for two days prior to oxaliplatin administration. After two days of pre-dosing with the PARP Inhibitor, mice were co-administered Compound C with cisplatin or oxaliplatin for 5 days (daily injections, i.p.), followed by 5 days off, followed by 5 daily injections (i.p.). Cumulative dose of cisplatin was 23 mg/kg. Cumulative dose of oxaliplatin was 30 mg/kg. Behavioral assays were performed on all groups of mice before dosing, and then at weeks 3, 6, and 8. Behavioral assays including determining mechanical threshold with von Frey monofilaments, determining, latency to paw withdrawal from a radiant heat source, and number of paw lifts from a cold plate.

cisplatin model = assay: Cisplatin model: behavioral assays (von Frey mechanical threshold, paw withdrawal latency from radiant heat); format: in vivo; conditions: mice, cisplatin cumulative 23 mg/kg, Compound C 25 or 50 mg/kg/day i.p.
Procedure: as §1

Structure (SMILES): CC1(c2nc3c(C(N)=O)cc(F)cc3[nH]2)CCCN1 (stereo not drawn) [Compound B, 6-fluoro-2-(2-methylpyrrolidin-2-yl)-1H-benzimidazole-4-carboxamide]
- development of mechanical allodynia (mechanical threshold, von Frey) ([1]; Example 1, rats, Compound B 25 or 50 mg/kg/day i.p., 2 days pre-dosing then mini-pump 12 days, tested 3, 6 and 10 days after vincristine start, FIG. 2): attenuated development of mechanical allodynia; also recorded: prevention of vincristine-mediated pain

Structure (SMILES): C[C@]1(c2nc3c(C(N)=O)cccc3[nH]2)CCCN1 [Compound A, 2-[(2R)-2-methylpyrrolidin-2-yl]-1H-benzimidazole-4-carboxamide]
- development of mechanical allodynia (mechanical threshold, von Frey) ([1]; Example 1, rats, Compound A 25 or 50 mg/kg/day i.p., 2 days pre-dosing then mini-pump 12 days, tested 5, 9 and 12 days after vincristine start, FIG. 1): attenuated development of mechanical allodynia; also recorded: prevention of vincristine-mediated pain
- development of mechanical allodynia (mechanical threshold, von Frey) ([1]; Example 3, rats, Compound A 25 or 50 mg/kg/day (i.p., bid pre-dosing 2 days, then mini-pump 12 days), tested days 5, 9 and 12, FIG. 7): attenuated development of mechanical allodynia; also recorded: prevention of vincristine-mediated pain
- vincristine-mediated PAR activation (PAR levels) in rat glabrous skin (PAR (pADPr)): significantly reduced vincristine-mediated PAR activation; also recorded: prevention of vincristine-mediated increase in PAR levels in skin

Structure (SMILES): C[C@@]1(c2nc3c(C(N)=O)cccc3[nH]2)CCCN1 [Compound C, 2-[(2S)-2-methylpyrrolidin-2-yl]-1H-benzimidazole-4-carboxamide]
- cisplatin-induced decrease in amplitude in SNAP recording from the digital nerve [2]: prevented; also recorded: prophylactic effect
- development of cold hyperalgesia (number of paw lifts from cold plate) (oxaliplatin model; week 6): attenuated development of cold hyperalgesia; also recorded: attenuation of oxaliplatin-mediated cold allodynia
- development of mechanical allodynia (von Frey) (oxaliplatin model; weeks 3 and 6): attenuated development of mechanical allodynia; also recorded: attenuation of oxaliplatin-mediated mechanical allodynia
- development of mechanical allodynia (von Frey) (cisplatin model; weeks 3, 6 and 8): attenuated development of mechanical allodynia; also recorded: attenuation of cisplatin-mediated mechanical allodynia
- development of heat hyperalgesia (latency to paw withdrawal from radiant heat source) (cisplatin model; weeks 3 and 6): attenuated development of heat hyperalgesia; also recorded: attenuation of cisplatin-mediated heat hyperalgesia

Structure (SMILES): CN1CC[C@]23c4c5ccc(O)c4O[C@H]2[C@@H](O)C=C[C@H]3[C@H]1C5 [Morphine, morphine, reference compound]
- reversal of mechanical allodynia (von Frey), positive control ([1]; Example 1): fully reversed mechanical allodynia on all testing days
- reversal of mechanical allodynia (von Frey), positive control ([1]; Example 3): fully reversed mechanical allodynia on all testing days

Structure (SMILES): O=C1CCC(=O)N1c1cc(Cc2n[nH]c(=O)c3c2CCCC3)ccc1F [Compound D, 1-(2-fluoro-5-((4-oxo-3,4,5,6,7,8-hexahydrophthalazin-1-yl)methyl)phenyl)pyrrolidine-2,5-dione]
- vincristine-induced mechanical allodynia (mechanical threshold, von Frey) ([1]; Example 6, rats, vincristine i.v. by mini-pump 12 days, Compound D 25 or 50 mg/kg/day, 2 days ip pretreatment, days 5, 9 and 12 post-mini-pump implantation, FIG. 10): attenuated vincristine-induced mechanical allodynia; also recorded: dose-dependent; also recorded: prevention of vincristine-mediated pain

Source: patent US20140093585A1, “PARP INHIBITORS FOR THE TREATMENT OF CIPN” (AbbVie Inc., priority 2011, published 2014)
